Results from US20090023773A1, “COMPOSITIONS AND METHODS FOR MODULATING GATED ION CHANNELS” (PainCeptor Pharma Corporation, priority 2007, published 2009).

Biological target: T1, recombinant homomeric hASIC1a channels (Homo sapiens, UniProt P78348)
T1 construct: expressed in transfected cells; host or cells: Xenopus laevis oocytes (nuclear microinjection of expression vector such as pcDNA3)
T1 sequence (P78348 1-528): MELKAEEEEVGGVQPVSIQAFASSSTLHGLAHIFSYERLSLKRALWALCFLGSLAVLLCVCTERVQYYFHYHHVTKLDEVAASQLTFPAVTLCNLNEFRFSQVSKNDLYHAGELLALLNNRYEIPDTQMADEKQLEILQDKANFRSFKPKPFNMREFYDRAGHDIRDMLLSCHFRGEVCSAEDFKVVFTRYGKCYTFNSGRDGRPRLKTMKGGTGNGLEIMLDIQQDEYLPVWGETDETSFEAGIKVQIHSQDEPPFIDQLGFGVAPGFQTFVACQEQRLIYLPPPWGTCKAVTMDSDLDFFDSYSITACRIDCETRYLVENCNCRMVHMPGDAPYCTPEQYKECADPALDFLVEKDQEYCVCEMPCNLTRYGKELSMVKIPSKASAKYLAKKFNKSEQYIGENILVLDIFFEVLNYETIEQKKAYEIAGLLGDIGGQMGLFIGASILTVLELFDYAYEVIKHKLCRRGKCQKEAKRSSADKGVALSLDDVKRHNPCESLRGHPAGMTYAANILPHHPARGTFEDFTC
Test: Two-electrode voltage clamp in Xenopus laevis oocytes expressing gated ion channels (Example 4)
Assay type: cell-based
Conditions: generated using oocytes as in Example 4

| IC50 (Table 1) [µM] | IC50 (Table 2) [µM] | Compound |
| --- | --- | --- |
| 0.1 to 10 |  | Cc1cc(OC2CCN(Cc3ccccc3F)CC2)c2cccc(F)c2n1 [Compound 2] |
| 0.1 to 10 |  | Cc1cc(OC2CCN(Cc3cccnc3)CC2)c2cccc(F)c2n1 [Compound 3] |
| > 30 |  | Cc1cc(OC2CC(C)(C)N(Cc3ccccc3)C(C)(C)C2)c2ccccc2n1 [Compound 4] |
| 0.1 to 10 |  | Cc1cc(OC2CCN(Cc3ccccc3F)C(C)C2)c2ccccc2n1 (stereo not drawn) [Compound 5] |
| 10.1 to 20 |  | Cc1nc(OC2CCN(Cc3ccccc3)CC2)c2ccccc2n1 [Compound 7] |
| > 30 |  | Cc1nc(OC2CCN(Cc3ccccc3F)CC2)c2ccccc2n1 [Compound 8] |
| > 30 |  | Cc1nc(OC2CCN(Cc3ccccc3C#N)CC2)c2ccccc2n1 [Compound 9] |
| 0.1 to 10 |  | C=CCOC(=O)N1CCC(Oc2nc(C)nc3ccccc23)CC1 [Compound 10] |
| 0.1 to 10 |  | COc1cccc2c(OC3CCN(Cc4ccccc4)CC3)cc(C)nc12 [Compound 11] |
| 20.1 to 30 |  | O=C(O)c1cc(OC2CCN(Cc3ccccc3)CC2)c2ccccc2n1 [Compound 12] |
| 0.1 to 10 |  | COc1cccc(CN2CCC(Oc3cc(C)nc4ccccc34)CC2)c1 [Compound 14] |
| 0.1 to 10 |  | Cc1cc(OC2CCN(C(C)c3ccccc3C(=O)O)CC2)c2cccc(F)c2n1 (stereo not drawn) [Compound 15] |
| 0.1 to 10 |  | Cc1cc(OC2CCN(Cc3ccccc3C#N)CC2)c2cccc(F)c2n1 [Compound 17] |
| 20.1 to 30 |  | Cc1cc(OC2CCN(C(C)c3ccccc3C#N)CC2)c2cccc(F)c2n1 (stereo not drawn) [Compound 18] |
| > 30 |  | Cc1cc(OC2CCCN(Cc3ccccc3)C2)c2ccccc2n1 (stereo not drawn) [Compound 19] |
| > 30 |  | Cc1cc(O[C@H]2CCCN(Cc3ccccc3)C2)c2ccccc2n1 [Compound 20] |
| > 30 |  | Cc1cc(OC2CCN(Cc3ccccc3)CC2)c2cccc(O)c2n1 [Compound 21] |
| 0.1 to 10 |  | Cc1cc(OC2CCN(Cc3cccc(O)c3)CC2)c2ccccc2n1 [Compound 22] |
| > 30 |  | Cc1cc(OC2CCN(Cc3c(F)cccc3C(=O)O)CC2)c2cccc(F)c2n1 [Compound 23] |
| > 30 |  | Cc1cc(OC2CCN(Cc3ccccc3C(=O)O)CC2)c2cc(O)ccc2n1 [Compound 24] |
| > 30 |  | Cc1cc(OC2CCN(Cc3cccnc3C(=O)O)CC2)c2cccc(F)c2n1 [Compound 25] |
| 0.1 to 10 |  | Cc1cc(OC2CCN(Cc3ccc(O)cc3)CC2)c2cccc(F)c2n1 [Compound 26, 4-((4-(8-fluoro-2-methylquinolin-4-yloxy)piperidin-1-yl)methyl)phenol] |
|  | 0.1 to 10 | Cc1cc(OC2CCN(Cc3cccc(F)c3)CC2)c2ccccc2n1 [Compound 27] |
|  | 0.1 to 10 | Cc1cc(OC2CCN(Cc3ccccc3)CC2)c2cc(F)ccc2n1 [Compound 29] |
|  | 10.1 to 20 | Cc1cc(OC2CCN(Cc3ccccc3C#N)CC2)c2cc(F)ccc2n1 [Compound 30] |
|  | 10.1 to 20 | Cc1cc(OC2CCN(Cc3ccccc3C(=O)O)CC2)c2cc(F)ccc2n1 [Compound 31] |

| IC50 (Table 1) [µM] | IC50 (Table 2) [µM] | Compound |
| --- | --- | --- |
|  | 0.1 to 10 | COc1cc(F)cc2c(OC3CCN(Cc4ccccc4)CC3)cc(C)nc12 [Compound 32] |
|  | > 30 | COc1ccc(F)c2c(OC3CCN(Cc4ccccc4)CC3)cc(C)nc12 [Compound 33] |
|  | > 30 | COc1cc(F)cc2c(OC3CCN(Cc4ccccc4C#N)CC3)cc(C)nc12 [Compound 34] |
|  | > 30 | COc1ccc(F)c2c(OC3CCN(Cc4ccccc4C#N)CC3)cc(C)nc12 [Compound 35] |
|  | 0.1 to 10 | COc1cc(F)cc2c(OC3CCN(Cc4ccccc4C(=O)O)CC3)cc(C)nc12 [Compound 36, 2-[4-(6-Fluoro-8-methoxy-2-methyl-quinolin-4-yloxy)-piperidin-1-ylmethyl]-benzoic acid] |
|  | 0.1 to 10 | COc1cc(F)cc2c(OC3CCN(Cc4ccccc4-c4nnn[nH]4)CC3)cc(C)nc12 [Compound 37, 6-Fluoro-8-methoxy-2-methyl-4-{1-[2-(1H-tetrazol-5-yl)-benzyl]-piperidin-4-yloxy}-quinoline] |
|  | 0.1 to 10 | Cc1cc(OC2CCN(C(C)c3ccccc3)CC2)c2ccccc2n1 (stereo not drawn) [Compound 38] |
|  | > 30 | Cc1cc(OC2CCN(C(C)C)CC2)c2cccc(F)c2n1 [Compound 39] |
|  | > 30 | Cc1cc(NC2CCN(Cc3ccccc3)CC2)c2ccccc2n1 [Compound 40] |
|  | 0.1 to 10 | COc1ccc(CN2CCC(Oc3cc(C)nc4c(F)cccc34)CC2)cc1 [Compound 41] |
|  | 0.1 to 10 | Cc1cc(OC2CCN(Cc3c(F)cccc3C#N)CC2)c2cccc(F)c2n1 [Compound 42] |
|  | > 30 | Cc1cc(OC2CCN(Cc3c(F)cccc3C(=O)O)CC2)c2cc(Br)ccc2n1 [Compound 43] |
|  | > 30 | Cc1cc(OC2CCN(Cc3c(F)cccc3C#N)CC2)c2cc(Br)ccc2n1 [Compound 44] |
|  | > 30 | Cc1cc(OC2CCN(Cc3c(F)cccc3C#N)CC2)c2cc(C#N)ccc2n1 [Compound 45] |
|  | 20.1 to 30 | Cc1cc(OC2CCN(Cc3ccccc3)CC2)c2cc(C#N)ccc2n1 [Compound 46] |
|  | 0.1 to 10 | COc1ccc(CN2CCC(Oc3cc(C)nc4c(F)cccc34)CC2)c(F)c1 [Compound 47] |
|  | > 30 | COc1ccc(CN2CCC(Oc3cc(C)nc4ccc(Br)cc34)CC2)cc1 [Compound 48] |
|  | 0.1 to 10 | Cc1cc(OC2CCN(Cc3ccc(O)cc3F)CC2)c2cccc(F)c2n1 [Compound 49] |
|  | 0.1 to 10 | Cc1cc(OC2CCN(Cc3ccccc3-c3nnn[nH]3)CC2)c2cccc(F)c2n1 [Compound 50, 4-[1-(2-(1H-tetrazol-5-yl-)benzyl)piperidin-4-yloxy]-8-fluoro2-methylquinoline] |
|  | 10.1 to 20 | COC(=O)c1ccc(NC(=O)c2ccccc2CN2CCC(Oc3cc(C)nc4c(F)cccc34)CC2)cc1 [Compound 51] |
|  | > 30 | Cc1cc(OC2CCN(Cc3ccccc3C#N)CC2)c2cc(OC3CCCCO3)ccc2n1 (stereo not drawn) [Compound 52] |
|  | 0.1 to 10 | Cc1cc(OC2CCN(Cc3ccccc3C(=O)Nc3ccc(C(=O)O)cc3)CC2)c2cccc(F)c2n1 [Compound 54] |
|  | > 30 | Cc1cc(OC2CCN(Cc3ccccc3)CC2)c2cc(-c3cccc(F)c3)ccc2n1 [Compound 55] |
|  | 0.1 to 10 | Cc1cc(OC2CCN(Cc3ccccc3-c3nnn[nH]3)CC2)c2cc(O)ccc2n1 [Compound 56] |
|  | > 30 | Cc1cc(OC2CCN(Cc3ccccc3C#N)CC2)c2cc(Br)ccc2n1 [Compound 57] |
|  | > 30 | Cc1cc(OC2CCN(Cc3ccccc3)CC2)c2cc(-c3nnn[nH]3)ccc2n1 [Compound 58] |

| IC50 (Table 1) [µM] | IC50 (Table 2) [µM] | Compound |
| --- | --- | --- |
|  | > 30 | Cc1cc(OC2CCN(Cc3ccccc3-c3nnn[nH]3)CC2)c2cc(Br)ccc2n1 [Compound 59] |
|  | > 30 | Cc1cc(OC2CCN(Cc3ccccc3C#N)CC2)c2cc(C#N)ccc2n1 [Compound 60] |
|  | 0.1 to 10 | Cc1cc(OC2CCN(Cc3ccccc3C(=O)NCCCC(=O)OCc3ccccc3)CC2)c2cccc(F)c2n1 [Compound 61] |
|  | > 30 | Cc1cc(OC2CCN(Cc3ccccc3C#N)CC2)c2ccccc2n1 [Compound 63] |
|  | 20.1 to 30 | COC(=O)c1ccc(CN2CCC(Oc3cc(C)nc4ccccc34)CC2)cc1 [Compound 64] |
|  | > 30 | Cc1cc(OC2CCN(Cc3ccc(F)c(C#N)c3)CC2)c2ccccc2n1 [Compound 65] |
|  | > 30 | Cc1cc(OC2CCN(Cc3ccc(C(=O)O)cc3)CC2)c2ccccc2n1 [Compound 66] |
|  | > 30 | Cc1cc(OC2CC(C)N(Cc3ccccc3F)C(C)C2)c2ccccc2n1 (stereo not drawn) [Compound 67] |
|  | 0.1 to 10 | c1ccc(CN2CCC(Oc3ccnc4ccccc34)CC2)cc1 [Compound 68] |
|  | > 30 | COc1ccc(CC2CCC(Oc3cc(C)nc4c(F)cccc34)CC2)cc1 (stereo not drawn) [Compound 69] |
|  | 0.1 to 10 | COc1cccc(CN2CCC(Oc3cc(C)nc4c(F)cccc34)CC2)c1 [Compound 70] |
|  | 0.1 to 10 | COc1ncccc1CN1CCC(Oc2cc(C)nc3c(F)cccc23)CC1 [Compound 71] |
|  | > 30 | COc1ccc(CN2CCC(Oc3cc(C)nc4c(F)cccc34)CC2)cn1 [Compound 72] |
|  | 20.1 to 30 | Cc1cc(OC2CCN(Cc3ccncc3F)CC2)c2cccc(F)c2n1 [Compound 73] |
|  | 0.1 to 10 | Cc1cc(OC2CCN(Cc3ccccc3)C3CCCCC23)c2cccc(F)c2n1 (stereo not drawn) [Compound 74] |
|  | > 30 | Cc1cc(OC2CCCN(Cc3ccccc3)CC2)c2cccc(F)c2n1 (stereo not drawn) [Compound 75] |
|  | > 30 | Cc1cc(OC2CCN(Cc3cccnc3CO)CC2)c2cccc(F)c2n1 [Compound 76] |
|  | 10.1 to 20 | Cc1cc(OC2CCN(Cc3c(F)cccc3F)CC2)c2cccc(F)c2n1 [Compound 77] |
|  | 20.1 to 30 | Cc1cc(OC2CCN(Cc3ccc(Br)cc3F)CC2)c2cccc(F)c2n1 [Compound 78] |
|  | > 30 | Cc1cc(OC2CCN(Cc3ccccc3)CC2)c2ccc(F)cc2n1 [Compound 80] |
|  | > 30 | COc1cc(OC)c(CN2CCC(Oc3cc(C)nc4c(F)cccc34)CC2)c(C(=O)O)c1 [Compound 81] |
|  | > 30 | Cc1cc(OC2CCN(Cc3ccccc3C(=O)O)C3CCCCC23)c2cccc(F)c2n1 (stereo not drawn) [Compound 82] |
|  | > 30 | c1ccc(CN2CCC(Oc3nccc4ccccc34)CC2)cc1 [Compound 83] |
|  | > 30 | Cc1cc(OC2CCN(Cc3ccc4ccccc4c3)CC2)c2cccc(F)c2n1 [Compound 84] |
|  | > 30 | Cc1cc(OC2CCN(Cc3cccc(OCc4ccccc4)c3)CC2)c2ccccc2n1 [Compound 85] |
|  | 10.1 to 20 | Cc1cc(OC2CCN(Cc3ccc4c(c3)OCO4)CC2)c2ccccc2n1 [Compound 86] |
